Values quoted from earlier work, collected in US8653307B2 (California Institute of Technology, priority 2011, dated 2014).

Key:
PI3Kα = PI3Kα (Homo sapiens, UniProt P42336)
CaCo (human colon) = CaCo (human colon) cells; read-out: IC50 (cytotoxicity)
LoVo (human colon) cells = settings: read-out: IC50 (cytotoxicity)
[1] = tested on: MDA-468 breast cancer line; settings: read-out: IC50 (cytotoxicity)

PI3Kα, sequence (P42336 whole entry): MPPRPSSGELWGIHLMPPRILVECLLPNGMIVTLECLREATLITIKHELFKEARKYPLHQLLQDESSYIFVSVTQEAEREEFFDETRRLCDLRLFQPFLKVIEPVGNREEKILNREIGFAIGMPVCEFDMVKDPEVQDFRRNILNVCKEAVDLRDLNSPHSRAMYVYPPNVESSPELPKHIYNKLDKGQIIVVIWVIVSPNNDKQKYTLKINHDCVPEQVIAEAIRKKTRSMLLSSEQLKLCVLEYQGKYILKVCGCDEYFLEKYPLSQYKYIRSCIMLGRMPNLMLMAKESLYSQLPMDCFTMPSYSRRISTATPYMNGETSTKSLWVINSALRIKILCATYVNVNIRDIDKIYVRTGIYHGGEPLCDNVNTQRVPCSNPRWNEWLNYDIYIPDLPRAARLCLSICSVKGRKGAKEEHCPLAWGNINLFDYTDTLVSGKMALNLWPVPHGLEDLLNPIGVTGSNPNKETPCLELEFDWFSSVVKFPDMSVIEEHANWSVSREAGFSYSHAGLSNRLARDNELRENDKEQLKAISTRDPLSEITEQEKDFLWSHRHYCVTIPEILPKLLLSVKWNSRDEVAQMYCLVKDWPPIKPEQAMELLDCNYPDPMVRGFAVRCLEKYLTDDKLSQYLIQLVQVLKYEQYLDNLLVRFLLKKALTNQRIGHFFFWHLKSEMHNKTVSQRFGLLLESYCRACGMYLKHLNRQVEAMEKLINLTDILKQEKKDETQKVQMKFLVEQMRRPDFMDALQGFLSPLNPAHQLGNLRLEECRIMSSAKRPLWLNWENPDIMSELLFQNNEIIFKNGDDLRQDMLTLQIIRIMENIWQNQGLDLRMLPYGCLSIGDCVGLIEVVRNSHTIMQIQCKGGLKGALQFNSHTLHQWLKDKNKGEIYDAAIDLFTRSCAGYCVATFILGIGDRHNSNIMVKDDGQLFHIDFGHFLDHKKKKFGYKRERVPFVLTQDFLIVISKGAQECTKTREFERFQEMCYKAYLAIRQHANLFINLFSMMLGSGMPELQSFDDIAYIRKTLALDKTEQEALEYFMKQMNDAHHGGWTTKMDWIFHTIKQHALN
PI3Kα, sequence (P27986 whole entry partner): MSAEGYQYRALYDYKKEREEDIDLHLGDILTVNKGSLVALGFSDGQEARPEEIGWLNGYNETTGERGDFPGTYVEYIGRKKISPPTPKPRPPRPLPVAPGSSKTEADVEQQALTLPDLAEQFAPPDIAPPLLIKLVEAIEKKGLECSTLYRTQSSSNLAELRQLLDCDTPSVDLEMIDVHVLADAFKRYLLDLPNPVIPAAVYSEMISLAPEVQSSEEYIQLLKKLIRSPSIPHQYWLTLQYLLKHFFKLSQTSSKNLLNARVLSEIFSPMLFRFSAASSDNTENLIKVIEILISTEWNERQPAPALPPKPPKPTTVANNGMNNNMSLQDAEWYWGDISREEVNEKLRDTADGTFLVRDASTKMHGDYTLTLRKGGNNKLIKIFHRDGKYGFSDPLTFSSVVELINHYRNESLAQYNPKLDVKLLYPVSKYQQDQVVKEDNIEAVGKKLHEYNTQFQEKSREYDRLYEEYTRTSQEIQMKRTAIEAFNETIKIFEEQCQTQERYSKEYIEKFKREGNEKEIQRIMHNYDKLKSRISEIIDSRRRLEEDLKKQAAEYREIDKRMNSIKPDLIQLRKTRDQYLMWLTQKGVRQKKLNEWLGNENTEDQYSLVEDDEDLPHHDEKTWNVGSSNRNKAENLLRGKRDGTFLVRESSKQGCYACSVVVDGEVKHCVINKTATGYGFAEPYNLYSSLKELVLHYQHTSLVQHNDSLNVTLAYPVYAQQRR

| Compound | selectivity among PI3Ks / related enzymes (in words) (PI3Kα) | IC50 (CaCo (human colon)) | IC50 (LoVo (human colon) cells) | IC50 [1] |
| --- | --- | --- | --- | --- |
| O=c1cc(N2CCOCC2)oc2c(-c3ccccc3)cccc12 [LY294002] | somewhat selective |  |  |  |
| liphagal |  | 670 nM | 580 nM | 1580 nM |
